# Assay results taken from patent US20240215873A1, “Aptamer Sensors with Temperature Correction” (University of Cincinnati, priority 2021, published 2024).
# Settings: room temperature; saturated concentration of target analyte; 20 mM tris buffer
# Method: The sensors were all interrogated in 20 mM tris buffer (20 mM trizma base, 100 mM NaCl and 5 mM MgCl2). FIG. 5 illustrates the equilibration of a sensor response with or without the presence of analyte target such as ATP, Tobramycin, or Cocaine.
# The aptamers were equilibrated, interrogated, and regenerated in tris buffer at 1° C., 22° C. and 37° C. […] The performance of each E-AB sensor was characterized to determine their expected response in room temperature (RT).
# To fabricate the E-AB sensors, the 2 mm diameter gold disk macro electrodes (CH Instruments, Austin, TX) were hand polished for 2 min in a 1 μm diamond slurry (Buehler, Lake Bluff, IL) followed by polishing for 2 min in 0.05 μm alumina oxide slurry (Buehler, Lake Bluff, IL). All electrodes were rinsed with ultrapure water (Milli-Q Ultrapure Water Purification, Millipore, Billerica, MA, U.S.A.). To remove particulates, the electrodes were sonicated in a low power sonicator for 5 min. Next, the electrodes were electrochemically cleaned in various concentrations of sodium hydroxide and sulfuric acid solutions. Sensor fabrication consists of numerous steps of incubation. First, 2 uL of 100 mM TCEP was added to 1 μL of aptamer and left to incubate for 1 h to perform a disulfide bond reaction. […]
substance,measurement,value
cocaine,percent signal change (increase in current),56%
